Counter-ions that a name gives are not always drawn. Like-named read-outs stand apart in the source and are kept apart here.
Experiments:
[1] = test system: Cryptosporidium parvum; experiment: qRT-PCR assay of the growth of C. parvum in vitro in HCT-8 host cells (primary and secondary screening, EC50); type: cell-based; details: for Inhibition (%): primary screening at 10 uM; for % Inhibition (3.3 uM): secondary screening at 3.3 uM
[2] = test system: HCT-8 host cells (Hs18S)
[3] = primary screening at 10 uM, from Hs18S ΔCT
[4] = primary screening at 10 uM, treated vs control

Compound	Inhibition (%) [1] [%]	Cytotoxicity (%) [2, 3] [%]	Hs18S ΔCT [2, 4]	% Inhibition (3.3 uM) [1] [%]	Hs18S ΔCT [2]	Cytotoxicity (%) ([2]; 10 µM)
CC(=O)O[C@@H]1CC2C(C)(C)C(=O)C3OC3[C@]2(C)C2CC[C@@]3(C)[C@H](c4ccoc4)OC(=O)C4OC43[C@@]21C (stereo partly shown) [EPOXYGEDUNIN]	29.04	-37.3	-0.46	–	–	–
COC[C@]12CN(C=O)[C@@H]3[C@@H]4[C@H](OC)[C@H]1[C@@]3([C@@H](OC)C[C@H]2O)[C@@H]1C[C@@]2(O)[C@H](OC(=O)c3ccccc3)[C@@H]1[C@]4(OC(C)=O)[C@@H](O)[C@@H]2OC [OXONITINE]	0.75	3.3	0.05	–	–	–
Cc1occc(=O)c1O [LARIXINIC ACID]	59.78	12.9	0.20	–	–	–
IVERMECTIN	78.97	-3.4	-0.05	6	–	–
AVOCADYNOFURAN	-19.78	1.4	0.02	–	–	–
COc1cc([C@@H]2c3cc4c(cc3[C@H](OC(C)=O)[C@H]3COC(=O)[C@H]23)OCO4)cc(OC)c1OC [PODOPHYLLIN ACETATE]	72.02	33.2	0.58	64	–	–
COc1cc2c(cc1OC)Cc1cc(OC)c(OC)cc1Cc1cc(OC)c(OC)cc1C2 [CYCLOVERATRYLENE]	83.81	-2.2	-0.03	-85	–	–
CC1(C)C(=O)[C@@H]2O[C@@H]2[C@@]2(C)C1C[C@@H](O)[C@]1(C)C2CC[C@@]2(C)[C@H](c3ccoc3)OC(=O)C3OC321 (stereo partly drawn) [1,2alpha-EPOXYDEACETOXYDIHYDROGEDUNIN]	56.48	-12.9	-0.18	–	–	–
CC[C@H]1OC(=O)C[C@@H](O)[C@H](C)[C@@H](O[C@@H]2O[C@H](C)[C@@H](O[C@H]3C[C@@](C)(O)[C@@H](O)[C@H](C)O3)[C@H](N(C)C)[C@H]2O)[C@@H](CC=O)C[C@@H](C)C(=O)/C=C/C(C)=C/[C@@H]1CO[C@@H]1O[C@H](C)[C@@H](O)[C@@H](OC)[C@H]1OC [TYLOSIN TARTRATE]	25.75	-14.2	-0.19	–	–	–
CC(=O)O[C@H]1CC[C@@]2(C)C(=CC[C@H]3[C@@H]4CC[C@H]([C@H](C)CCCC(C)C)[C@@]4(C)CC[C@@H]32)C1 [CHOLESTERYL ACETATE]	-22.86	-5.8	-0.08	–	–	–
O=C(O[C@@H]1Cc2c(O)cc(O)cc2O[C@@H]1c1ccc(O)c(O)c1)c1cc(O)c(O)c(O)c1 [EPICATECHIN MONOGALLATE]	6.24	23.1	0.38	–	–	–
NCCc1ccc(O)c(O)c1 [3-HYDROXYTYRAMINE]	–	–	–	6	0.76	41.1
C=C(C)[C@@H]1CC[C@]2(C)CC[C@]3(C)[C@H](CC[C@@H]4[C@@]5(C)CC[C@H](OC(C)=O)C(C)(C)[C@@H]5CC[C@]43C)[C@@H]12 [LUPEOL ACETATE]	25.85	-12.1	-0.17	–	–	–
COc1cc2c3cc1Oc1cc(ccc1O)C[C@@H]1c4c(cc(OC)c(O)c4Oc4ccc(cc4)C[C@@H]3N(C)CC2)CC[N+]1(C)C.Cl.O.O.O.O.O.[Cl-] [TUBOCURARINE CHLORIDE]	37.53	-22.2	-0.29	–	–	–
COc1cc(OC)c2c(=O)c(OC)c(-c3ccccc3)oc2c1 [GALANGIN TRIMETHYL ETHER]	-18.22	8.8	0.13	–	–	–
AVOCATIN B	4.87	21.9	0.36	–	–	–

Compound	Inhibition (%) [1] [%]	Cytotoxicity (%) [2, 3] [%]	Hs18S ΔCT [2, 4]	% Inhibition (3.3 uM) [1] [%]	Hs18S ΔCT [2]	Cytotoxicity (%) ([2]; 10 µM)
O.O=C(O)[C@@H]1[C@H]2C[C@H]3c4[nH]c5ccccc5c4CCN3C[C@@H]2CC[C@@H]1O [YOHIMBIC ACID HYDRATE]	-21.23	-20.7	-0.27	–	–	–
OC[C@H]1O[C@H](OCC2O[C@@H](O)[C@H](O)[C@@H](O)[C@@H]2O)[C@H](O)[C@@H](O)[C@H]1O (stereo partly shown) [MELIBIOSE]	-16.19	-4.0	-0.06	–	–	–
O=C1CCC[C@@H]2[C@H]3C[C@@H](CN12)[C@@H]1CCCCN1C3.[O-][Cl+3]([O-])([O-])O [LUPANINE PERCHLORATE]	10.49	-6.1	-0.09	–	–	–
C=C(C)CCCC(C)CCOC(C)=O (stereo not shown) [RHODINYL ACETATE]	-15.58	10.9	0.17	–	–	–
CC(C)(O)[C@@H]1CC[C@](C)([C@H]2[C@@H](O)C[C@@]3(C)[C@@H]4C[C@H](O[C@@H]5O[C@H](CO)[C@@H](O)[C@H](O)[C@H]5O)[C@H]5C(C)(C)[C@@H](O[C@@H]6OC[C@@H](O)[C@H](O)[C@H]6O)CC[C@@]56C[C@@]46CC[C@]23C)O1 [ASTRAGALOSIDE IV]	-18.98	-14.1	-0.19	–	–	–
NC[C@H]1O[C@H](O[C@H]2[C@H](O[C@@H]3O[C@H](CO)[C@@H](O)[C@H]3O)[C@@H](O)[C@H](N)C[C@@H]2N)[C@H](N)[C@@H](O)[C@@H]1O.O=S(=O)(O)O [RIBOSTAMYCIN SULFATE]	-35.94	-2.0	-0.03	–	–	–
CC1(C)CCC[C@]2(C)[C@H]3CC(=O)O[C@]3(C)CC[C@@H]12 [SCLAREOLIDE]	26.58	32.7	0.57	–	–	–
CC(=O)O[C@H]1CC[C@@]2(C)C(=CC=C3[C@@H]4CC[C@H]([C@H](C)/C=C/[C@H](C)C(C)C)[C@@]4(C)CC[C@@H]32)C1 [ERGOSTEROL ACETATE]	-10.68	3.7	0.06	–	–	–
CN(C)CC(=O)OC[C@@H](O)[C@@H](O)[C@H](O)[C@@H](O)C(=O)[O-].[Na+] [PANGAMIC ACID SODIUM]	-4.04	–	–	–	–	-61.0%
3-ACETYLGEDUNOL	-40.49	56.3	1.19	–	–	–
COc1ccc(/C=C/c2cc(O)cc(O[C@@H]3O[C@H](CO)[C@@H](O)[C@H](O)[C@H]3O)c2)cc1 [PICEID METHYL ETHER]	15.82	30.3	0.52	–	–	–
AVERMECTIN A1a	97.32	1.6	0.02	-85	–	–
CC(=O)O[C@@H]1CC2C(C)(CC[C@H](O)C2(C)C)C2CC[C@]3(C)C(=CC(=O)O[C@H]3c3ccoc3)C21C (stereo partly drawn) [3beta-HYDROXYDEOXODIHYDRODEOXYGEDUNIN]	77.26	-19.7	-0.26	-21	–	–
O=C(O)CCCCCCCC(O)C(O)CCCCCCO (stereo not shown) [ALEURETIC ACID]	36.82	–	–	–	0.24	15.2
CC(C)CCC[C@@H](C)[C@H]1CC[C@H]2C3=CC[C@H]4C[C@@H](O)CC[C@]4(C)[C@H]3CC[C@]12C [LATHOSTEROL]	-50.10	21.4	0.35	–	–	–
